Our source for the IC50 values is patent publication US11964953B2, “Substituted aminothiazoles as DGKzeta inhibitors for immune activation” (Bayer Aktiengesellschaft, priority 2020, dated 2024).

Chain of human DGKζ (Q13574 other isoform, or with tags, fused parts or gaps): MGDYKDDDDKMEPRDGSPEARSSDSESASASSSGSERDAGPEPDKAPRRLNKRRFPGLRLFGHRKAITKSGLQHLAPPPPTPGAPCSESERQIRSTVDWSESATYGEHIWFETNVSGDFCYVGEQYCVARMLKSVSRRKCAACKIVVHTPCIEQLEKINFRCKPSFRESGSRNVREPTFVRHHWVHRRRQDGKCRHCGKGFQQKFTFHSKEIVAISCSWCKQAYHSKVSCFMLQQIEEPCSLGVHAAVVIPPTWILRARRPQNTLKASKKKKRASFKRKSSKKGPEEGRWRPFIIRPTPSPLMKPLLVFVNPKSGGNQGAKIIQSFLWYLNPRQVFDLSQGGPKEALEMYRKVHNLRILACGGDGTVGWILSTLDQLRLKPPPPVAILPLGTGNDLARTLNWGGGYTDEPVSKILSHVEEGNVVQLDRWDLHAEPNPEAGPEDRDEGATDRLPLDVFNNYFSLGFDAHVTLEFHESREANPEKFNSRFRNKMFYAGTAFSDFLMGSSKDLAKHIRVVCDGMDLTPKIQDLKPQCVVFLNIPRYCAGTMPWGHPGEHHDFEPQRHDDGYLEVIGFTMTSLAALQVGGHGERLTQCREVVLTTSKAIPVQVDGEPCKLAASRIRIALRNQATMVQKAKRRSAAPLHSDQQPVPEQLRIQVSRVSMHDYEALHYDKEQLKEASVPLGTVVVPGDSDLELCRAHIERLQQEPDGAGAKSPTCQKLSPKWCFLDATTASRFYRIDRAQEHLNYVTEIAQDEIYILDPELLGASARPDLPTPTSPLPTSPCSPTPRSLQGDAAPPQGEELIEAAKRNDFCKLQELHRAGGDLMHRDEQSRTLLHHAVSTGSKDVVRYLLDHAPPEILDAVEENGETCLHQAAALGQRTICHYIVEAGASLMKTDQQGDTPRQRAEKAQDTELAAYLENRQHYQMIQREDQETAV

The target in the assay is human DGKζ (Homo sapiens (Human), UniProt Q13574). Description: Human DGKζ kinase activity inhibition assay (ADP-Glo). It is filed as biochemical. To be noted: in vitro human DGKζ kinase activity inhibition assay; read-out: IC50. The gist of the method:
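Enzyme was C-terminally FLAG-tagged full-length recombinant human DGKζ from baculovirus-infected insect cells. Substrate preparation used octyl-β-D-glucopyranoside in 50 mM MOPS pH 7.4 with sonication; ADP generated was quantified by ADP-Glo luminescence as activity measure.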
Consider `CC(C(N)=O)N(c1ccc(OC(F)F)c(F)c1)c1nc(N)c(C(=O)c2ccc(OC(F)F)cc2)s1` (racemic) [Example 207, rac-2-[N-[4-amino-5-[4-(difluoromethoxy)benzoyl]thiazol-2-yl]-4-(difluoromethoxy)-3-fluoro-anilino]propanamide], for which the IC50 stood at 22 nM.

As for `CC(C(N)=O)N(c1ccccc1)c1nc(N)c(C(=O)c2ccccc2)s1` (racemic) [Example 60, rac-2-(N-(4-amino-5-benzoyl-thiazol-2-yl)anilino)propanamide], the IC50 amounted to 403 nM.

With `Cc1ccc(N(C)C(=O)COc2ccc(C(=O)c3sc(N(c4ccc(F)cc4)C(C)C(N)=O)nc3N)cc2)cc1` (racemic) [Example 139, rac-2-(N-[4-amino-5-[4-[2-(N,4-dimethylanilino)-2-oxo-ethoxy]benzoyl]thiazol-2-yl]-4-fluoro-anilino)propanamide], the IC50 stood at 56.9 nM.

With `CC(C(N)=O)N(c1nc(N)c(C(=O)c2ccccc2)s1)c1ccc(Cl)cc1F` (racemic) [Example 30, rac-2-(N-(4-amino-5-benzoyl-thiazol-2-yl)-4-chloro-2-fluoro-anilino)propanamide], the IC50 amounted to 57.5 nM.

In the case of `COCCNC(=O)c1ccc(C(=O)c2sc(N(c3ccc(Cl)c(F)c3)C(C)C(N)=O)nc2N)cc1` (racemic) [Example 272, rac-4-[4-amino-2-(N-(2-amino-1-methyl-2-oxo-ethyl)-4-chloro-3-fluoro-anilino)thiazole-5-carbonyl]-N-(2-methoxyethyl)benzamide], the IC50 turned out to be 39 nM.

Consider `CC(C(N)=O)N(c1ccc(F)c(F)c1)c1nc(N)c(C(=O)c2ccc(C(F)(F)F)nc2)s1` (single isomer, unassigned) [Example 53.2, 2-(N-[4-amino-5-[6-(trifluoromethyl)pyridine-3-carbonyl]thiazol-2-yl]-3,4-difluoro-anilino)propanamide], for which the IC50 came out at 1780 nM.

Turning to `CC(C)NC(=O)c1ccc(C(=O)c2sc(N(c3ccc(F)cc3)C(C)C(N)=O)nc2N)cc1` (racemic) [Example 261, rac-4-[4-amino-2-(N-(2-amino-1-methyl-2-oxo-ethyl)-4-fluoro-anilino)thiazole-5-carbonyl]-N-isopropyl-benzamide], the IC50 is 90 nM.

On to `CC(C(N)=O)N(c1ccc(F)cc1)c1nc(N)c(C(=O)c2ccc(OCc3ccccc3)cc2)s1` (single isomer, unassigned) [Example 170.1, 2-(N-[4-amino-5-(4-benzyloxybenzoyl)thiazol-2-yl]-4-fluoro-anilino)propanamide], for which the IC50 was found to be 5 nM.

Take `CCOC(=O)C(C)(C)Oc1ccc(C(=O)c2sc(N(c3ccc(F)cc3)C(C)C(N)=O)nc2N)cc1` (racemic) [Example 259, Rac-Ethyl 2-[4-[4-amino-2-(N-(2-amino-1-methyl-2-oxo-ethyl)-4-fluoro-anilino)thiazole-5-carbonyl]phenoxy]-2-methyl-propanoate]: the IC50 was determined as 19 nM.

As for `COc1ccc(C(=O)c2sc(N(c3ccc(F)c(F)c3)C(C)C(N)=O)nc2N)cn1` (racemic) [Example 52, rac-2-(N-[4-amino-5-(6-methoxypyridine-3-carbonyl)thiazol-2-yl]-3,4-difluoro-anilino)propanamide], the IC50 was determined as 99.2 nM.

Regarding `CC(C(N)=O)N(c1ccc(Cl)c(F)c1)c1nc(N)c(C(=O)c2ccc(C(=O)NCCOC(C)(C)C)cc2)s1` (racemic) [Example 271, rac-4-[4-amino-2-(N-(2-amino-1-methyl-2-oxo-ethyl)-4-chloro-3-fluoro-anilino)thiazole-5-carbonyl]-N-(2-tert-butoxyethyl)benzamide], the IC50 came to 18 nM.

Consider `CC(C(N)=O)N(c1ccc(F)cc1)c1nc(N)c(C(=O)c2ccc(C(=O)NC[C@@H](C)O)cc2)s1` (mixture of isomers) [Example 265, 4-[4-amino-2-(N-(2-amino-1-methyl-2-oxo-ethyl)-4-fluoro-anilino)thiazole-5-carbonyl]-N-[(2R)-2-hydroxypropyl]benzamide (mixture of stereoisomers)], for which the IC50 turned out to be 459 nM.

For the molecule `CC(C(N)=O)N(c1cccc(F)c1)c1nc(N)c(C(=O)c2ccccc2)s1` (single isomer, unassigned) [Example 74.1, 2-(N-(4-amino-5-benzoyl-thiazol-2-yl)-3-fluoro-anilino)propanamide], the IC50 worked out at 17100 nM.

With `CC(C(N)=O)N(c1ccc(Cl)cc1)c1nc(N)c(C(=O)c2ccc(F)cc2)s1` (single isomer, unassigned) [Example 37.2, 2-(N-[4-amino-5-(4-fluorobenzoyl)thiazol-2-yl]-4-chloro-anilino)propanamide], the IC50 came to 9.46 nM.

Take `CC(C(N)=O)N(c1ccc(Cl)cc1)c1nc(N)c(C(=O)c2ccncc2)s1` (racemic) [Example 57, rac-2-(N-[4-amino-5-(pyridine-4-carbonyl)thiazol-2-yl]-4-chloro-anilino)propanamide]: the IC50 worked out at 155 nM.

As to `CC(=O)OCCOc1ccc(C(=O)c2sc(N(c3ccc(F)cc3)C(C)C(N)=O)nc2N)cc1` (racemic) [Example 168, rac-2-[4-[4-amino-2-(N-(2-amino-1-methyl-2-oxo-ethyl)-4-fluoro-anilino)thiazole-5-carbonyl]phenoxy]ethyl acetate], the IC50 came out at 19 nM.

On to `CC(C(N)=O)N(c1ccc(F)cc1)c1nc(N)c(C(=O)c2ccc(OCC(=O)Nc3ccc4ncccc4c3)cc2)s1` (racemic) [Example 108, rac-2-(N-(4-amino-5-[4-[2-oxo-2-(6-quinolylamino)ethoxy]benzoyl]thiazol-2-yl]-4-fluoro-anilino)propanamide], for which the IC50 turned out to be 19.4 nM.

Consider `COc1ccccc1CNC(=O)COc1ccc(C(=O)c2sc(N(c3ccc(F)cc3)C(C)C(N)=O)nc2N)cc1` (racemic) [Example 94, rac-2-(N-[4-amino-5-[4-[2-[(2-methoxyphenyl)methylamino]-2-oxo-ethoxy]benzoyl]thiazol-2-yl]-4-fluoro-anilino)propanamide], for which the IC50 is 25.7 nM.

For the molecule `CC(C(N)=O)N(c1ccc(F)cc1)c1nc(N)c(C(=O)c2ccc(OCC(=O)N3Cc4ccccc4C3)cc2)s1` (racemic) [Example 134, rac-2-(N-[4-amino-5-[4-(2-isoindolin-2-yl-2-oxo-ethoxy)benzoyl]thiazol-2-yl]-4-fluoro-anilino)propanamide], the IC50 came out at 76.8 nM.

Turning to `CC(C(N)=O)N(c1ccc(OC(F)F)c(F)c1)c1nc(N)c(C(=O)c2ccccc2)s1` (racemic) [Example 198, rac-2-[N-(4-amino-5-benzoyl-thiazol-2-yl)-4-(difluoromethoxy)-3-fluoro-anilinojpropanamide], the IC50 came to 88 nM.

On to `CC(C(N)=O)N(c1ccc(F)cc1)c1nc(N)c(C(=O)c2ccc(OCC(=O)N(C)Cc3cccnc3)cc2)s1` (racemic) [Example 137, rac-2-(N-[4-amino-5-[4-[2-[methyl(3-pyridylmethyl)amino]-2-oxo-ethoxy]benzoyl]thiazol-2-yl]-4-fluoro-anilino)propanamide], for which the IC50 is 238 nM.

In the case of `Cc1cc(C(=O)c2sc(N(c3ccc(F)cc3)C(C)C(N)=O)nc2N)ccn1` (single isomer, unassigned) [Example 187.1, 2-(N-[4-amino-5-(2-methylpyridine-4-carbonyl)thiazol-2-yl]-4-fluoro-anilino)propanamide], the IC50 came to 553 nM.

Regarding `CC(C(N)=O)N(c1ccc(OC(F)F)nc1)c1nc(N)c(C(=O)c2ccccc2)s1` (racemic) [Example 229, rac-2-[(4-amino-5-benzoyl-thiazol-2-yl)-[6-(difluoromethoxy)-3-pyridyl]amino]propanamide], the IC50 was 193 nM.

With `CC(C(N)=O)N(c1ccc(F)cc1)c1nc(N)c(C(=O)c2ccc([N+](=O)[O-])cc2)s1` (racemic) [Example 175, rac-2-(N-[4-amino-5-(4-nitrobenzoyl)thiazol-2-yl]-4-fluoro-anilino)propanamide], the IC50 was determined as 20 nM.

Turning to `COc1ccc(C(=O)c2sc(N(c3ccc(C(F)F)cc3)C(C)C(N)=O)nc2N)cc1` (racemic) [Example 243, rac-2-[N-[4-amino-5-(4-methoxybenzoyl)thiazol-2-yl]-4-(difluoromethyl)anilino]propanamide], the IC50 is 51 nM.

Regarding `CC(C(N)=O)N(c1cccnc1)c1nc(N)c(C(=O)c2ccccc2)s1` (racemic) [Example 79, rac-2-[(4-amino-5-benzoyl-thiazol-2-yl)-(3-pyridyl)amino]propanamide], the IC50 came to 6790 nM.

Turning to `CC(C(N)=O)N(c1ccc(OC(F)(F)F)cc1)c1nc(N)c(C(=O)c2ccc(F)cc2)s1` (single isomer, unassigned) [Example 27.1, 2-[N-[4-amino-5-(4-fluorobenzoyl)thiazol-2-yl]-4-(trifluoromethoxy)anilino]propanamide], the IC50 was 8650 nM.

On to `Cc1ccc(C(=O)c2sc(N(c3ccc(F)cc3)C(C)C(N)=O)nc2N)cc1` (single isomer, unassigned) [Example 63.1, 2-(N-[4-amino-5-(4-methylbenzoyl)thiazol-2-yl]-4-fluoro-anilino)propanamide], for which the IC50 was 5170 nM.

In the case of `COc1ccc(C(=O)c2sc(N(c3ccc(Cl)cc3)C(C)C(N)=O)nc2N)cc1` (racemic) [Example 58, rac-2-(N-[4-amino-5-(4-methoxybenzoyl)thiazol-2-yl]-4-chloro-anilino)propanamide], the IC50 is 16.7 nM.

Regarding `CC(C(N)=O)N(c1ccc(Cl)c(OC(F)(F)F)c1)c1nc(N)c(C(=O)c2ccccc2)s1` (racemic) [Example 236, rac-2-[N-(4-amino-5-benzoyl-thiazol-2-yl)-4-chloro-3-(trifluoromethoxy)anilino]propanamide], the IC50 turned out to be 730 nM.

Take `Cc1nc(N(c2ccc(F)c(F)c2)C(C)C(N)=O)sc1C(=O)c1ccc(OC(F)F)cc1` (racemic) [Example 55, rac-2-(N-[5-[4-(difluoromethoxy)benzoyl]-4-methyl-thiazol-2-yl]-3,4-difluoro-anilino)propanamide]: the IC50 was found to be 9.74 nM.
